From patent US20250313563A1, “GLYCOGEN SYNTHASE KINASE 3 INHIBITORS AND USES THEREOF” (The Broad Institute, Inc., priority 2022, published 2025)
Where two headings read alike, the source gives them in different places.

Experiments:
[1] = target: GSK3α (GST-full length GSK3α) (Homo sapiens (Human), UniProt P49840); experiment: GSK3α TR-FRET kinase assay; type: biochemical
Summary of the method: (§1)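 Full-length GST-tagged human enzyme (1 nM) is exposed to test compound for 30 min before substrates are added. Phosphorylation of a primed biotinylated glycogen synthase peptide proceeds 100 min at room temperature at low ATP (4 μM α; 2 μM β) or high ATP (1 mM). Product is quantified by TR-FRET.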

[2] = target: GSK3b (GST-full length GSK3b) (Homo sapiens (Human), UniProt P49841); experiment: GSK3b TR-FRET kinase assay; type: biochemical
Summary of the method: as §1

[3] = 1 nM GSK3α, 4 μM ATP, 30 minute preincubation, read-out: GSK3-A TR-FRET BIOCHEMICAL (TR-FRET), IC50
[4] = 1 nM GSK3b, 2 μM ATP, 30 minute preincubation, read-out: GSK3-B TR-FRET BIOCHEMICAL (TR-FRET), IC50
[5] = read-out: GSK3-A (TR-FRET 1 mM ATP), GMean, IC50, 1 mM ATP, geometric mean
[6] = read-out: GSK3-B (TR-FRET 1 mM ATP), GMean, IC50, 1 mM ATP, geometric mean
[7] = 1 nM GSK3α, 4 μM ATP, 30 minute preincubation, Table 16, read-out: GSK3-A TR-FRET BIOCHEMICAL (TR-FRET)
[8] = 1 nM GSK3b, 2 μM ATP, 30 minute preincubation, Table 16, read-out: GSK3-B TR-FRET BIOCHEMICAL (TR-FRET)
[9] = GSK3-A (TR-FRET 1 mM ATP), GMean, IC50, 1 mM ATP, geometric mean
[10] = GSK3-B (TR-FRET 1 mM ATP), GMean, IC50, 1 mM ATP, geometric mean
[11] = 1 nM GSK3α, 4 μM ATP, 30 minute preincubation, geometric mean, read-out: GSK3-A TR-FRET BIOCHEMICAL (TR-FRET), GMean, IC50
[12] = 1 nM GSK3b, 2 μM ATP, 30 minute preincubation, geometric mean, read-out: GSK3-B TR-FRET BIOCHEMICAL (TR-FRET), GMean, IC50

Chain of GSK3b (GST-full length GSK3b) (P49841 whole entry): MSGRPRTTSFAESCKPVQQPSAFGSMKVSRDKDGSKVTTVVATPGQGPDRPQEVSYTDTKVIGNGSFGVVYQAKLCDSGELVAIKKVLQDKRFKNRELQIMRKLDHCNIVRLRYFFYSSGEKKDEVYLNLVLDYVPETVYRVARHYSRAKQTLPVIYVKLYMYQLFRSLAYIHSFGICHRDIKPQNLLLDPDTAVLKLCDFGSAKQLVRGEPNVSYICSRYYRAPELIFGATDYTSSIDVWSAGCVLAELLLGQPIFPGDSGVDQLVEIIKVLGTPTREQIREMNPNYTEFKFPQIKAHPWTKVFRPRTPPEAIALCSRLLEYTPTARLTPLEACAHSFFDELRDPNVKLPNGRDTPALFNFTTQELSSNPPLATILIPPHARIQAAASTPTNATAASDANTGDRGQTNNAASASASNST
Chain of GSK3α (GST-full length GSK3α) (P49840 whole entry): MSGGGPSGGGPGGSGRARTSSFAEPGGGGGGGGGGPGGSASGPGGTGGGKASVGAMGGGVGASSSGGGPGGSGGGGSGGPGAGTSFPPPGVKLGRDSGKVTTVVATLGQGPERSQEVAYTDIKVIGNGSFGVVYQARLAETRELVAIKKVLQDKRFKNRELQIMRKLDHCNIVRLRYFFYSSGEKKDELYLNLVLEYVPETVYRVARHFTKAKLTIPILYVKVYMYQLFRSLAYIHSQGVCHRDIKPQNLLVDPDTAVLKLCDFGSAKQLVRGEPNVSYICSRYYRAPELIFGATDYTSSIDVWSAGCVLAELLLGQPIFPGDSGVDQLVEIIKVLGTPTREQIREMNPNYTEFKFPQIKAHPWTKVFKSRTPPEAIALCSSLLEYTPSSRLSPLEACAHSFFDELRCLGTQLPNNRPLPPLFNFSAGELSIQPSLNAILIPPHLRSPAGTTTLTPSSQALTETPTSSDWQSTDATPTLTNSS

CC1(C)CC(=O)C2=C(C1)Nc1n[nH]cc1[C@]21COC2(CN(C(=O)Cc3ccccc3)C2)C1 [Compound 948036]
IC50 [1, 3]: 100 to 1000 nM
IC50 [2, 4]: 100 to 1000 nM

CC1(C)CC(=O)C2=C(C1)Nc1n[nH]cc1[C@@]21COC2(CN(C(=O)Cc3ccccc3)C2)C1 [Compound 948037]
IC50 [1, 3]: ≤ 100 nM
IC50 [1, 5]: ≤ 100 nM
IC50 [2, 4]: ≤ 100 nM
IC50 [2, 6]: ≤ 100 nM

Cc1ccc(C(=O)N2CC3(C2)CC2(CO3)C3=C(CC(C)(C)CC3=O)Nc3n[nH]cc32)cc1C (stereo not drawn) [Compound 948038]
IC50 [1, 5]: ≤ 100 nM
IC50 [2, 6]: 100 to 1000 nM

Cc1ccc(C(=O)N2CC3(C2)C[C@]2(CO3)C3=C(CC(C)(C)CC3=O)Nc3n[nH]cc32)cc1C [Compound 948039]
IC50 [1, 3]: 100 to 1000 nM
IC50 [2, 4]: 1000 to 5000 nM

CC(=O)N1CCC2(C1)CC1(CO2)C2=C(CC(C)(C)CC2=O)Nc2n[nH]cc21 (stereo not drawn) [Compound 948040]
IC50 [1, 3]: ≤ 100 nM
IC50 [2, 4]: 100 to 1000 nM

CCC1(c2cccc(C(C)c3ncccn3)c2)C2=C(CC(C)(C)CC2=O)Nc2n[nH]cc21 (stereo not drawn) [Compound 948057]
IC50 [1, 7]: 100 to 1000 nM
IC50 [2, 8]: 1000 to 5000 nM

CC[C@]1(c2cccc([C@H](C)c3ncccn3)c2)C2=C(CC(C)(C)CC2=O)Nc2n[nH]cc21 [Compound 948060]
IC50 [1, 7]: ≤ 100 nM
IC50 [1, 5]: 100 to 1000 nM
IC50 [2, 8]: ≤ 100 nM
IC50 [2, 6]: 1000 to 5000 nM

CCC1(c2cccc(C(C)c3ncccn3)c2)C2=C(CC(C)(C)CC2=O)Nc2n[nH]cc21 (stereo not drawn) [Compound 948061]
IC50 [1, 7]: 100 to 1000 nM
IC50 [2, 8]: 1000 to 5000 nM

CCC1(c2cccc(-c3ccnc(C)n3)c2)C2=C(CC(C)(C)CC2=O)Nc2n[nH]cc21 (stereo not drawn) [Compound 948088]
IC50 [1, 7]: 100 to 1000 nM
IC50 [2, 8]: 1000 to 5000 nM

CCC1(c2cccc(-c3nc(C)ncc3C)c2)C2=C(CC(C)(C)CC2=O)Nc2n[nH]cc21 (stereo not drawn) [Compound 948091]
IC50 [1, 7]: ≤ 100 nM
IC50 [2, 8]: 100 to 1000 nM

CCC1(c2cccc(-c3ccnc(OC)n3)c2)C2=C(CC(C)(C)CC2=O)Nc2n[nH]cc21 (stereo not drawn) [Compound 948092]
IC50 [1, 7]: ≤ 100 nM
IC50 [2, 8]: ≤ 100 nM

CC1(C)CC(=O)C2=C(C1)Nc1n[nH]cc1C21CCN(S(=O)(=O)c2ccc(F)c(Cl)c2)CC1 [Compound 948117]
IC50 [1, 7]: ≤ 100 nM
IC50 [2, 8]: ≤ 100 nM

CC1(C)CC(=O)C2=C(C1)Nc1n[nH]cc1C21CCN(S(=O)(=O)c2cccc(Cl)c2F)CC1 [Compound 948118]
IC50 [1, 7]: ≤ 100 nM
IC50 [1, 9]: ≤ 100 nM
IC50 [2, 8]: ≤ 100 nM
IC50 [2, 10]: 100 to 1000 nM

CC1(C)CC(=O)C2=C(C1)Nc1n[nH]cc1C21CCN(S(=O)(=O)c2ccc(F)c(F)c2)CC1 [Compound 948119]
IC50 [1, 7]: ≤ 100 nM
IC50 [2, 8]: ≤ 100 nM

CC1(C)CC(=O)C2=C(C1)Nc1n[nH]cc1C21CCN(S(=O)(=O)c2cnc3cccnn23)CC1 [Compound 948120]
IC50 [1, 7]: ≤ 100 nM
IC50 [1, 9]: 100 to 1000 nM
IC50 [2, 8]: ≤ 100 nM
IC50 [2, 10]: 1000 to 5000 nM

CC1(C)CC(=O)C2=C(C1)Nc1n[nH]cc1C21CCN(S(=O)(=O)c2cc(F)ccc2F)CC1 [Compound 948121]
IC50 [1, 7]: ≤ 100 nM
IC50 [1, 9]: 100 to 1000 nM
IC50 [2, 8]: ≤ 100 nM
IC50 [2, 10]: 100 to 1000 nM

CC1(C)CC(=O)C2=C(C1)Nc1n[nH]cc1C21CCN(S(=O)(=O)c2cc(Cl)ccc2Cl)CC1 [Compound 948122]
IC50 [1, 7]: ≤ 100 nM
IC50 [2, 8]: 100 to 1000 nM

CC1(C)CC(=O)C2=C(C1)Nc1n[nH]cc1C21CCN(S(=O)(=O)c2cnn(CC(F)(F)F)c2)CC1 [Compound 948123]
IC50 [1, 7]: ≤ 100 nM
IC50 [1, 9]: 100 to 1000 nM
IC50 [2, 8]: ≤ 100 nM
IC50 [2, 10]: 100 to 1000 nM

CCC1(c2cccc(-c3ccncc3Cl)c2)C2=C(CC(C)(C)NC2=O)Nc2n[nH]cc21 (stereo not drawn) [Compound 948142]
IC50 [1, 11]: ≤ 100 nM
IC50 [1, 5]: ≤ 100 nM
IC50 [2, 12]: ≤ 100 nM
IC50 [2, 6]: 100 to 1000 nM

CC[C@]1(c2cccc(-c3ccnc4nc(C)ccc34)c2)C2=C(CC(C)(C)NC2=O)Nc2n[nH]cc21 [Compound 948143]
IC50 [1, 11]: ≤ 100 nM
IC50 [2, 12]: 100 to 1000 nM

CCC1(c2cccc(-c3c(F)cncc3OC)c2)C2=C(CC(C)(C)NC2=O)Nc2n[nH]cc21 (stereo not drawn) [Compound 948145]
IC50 [1, 11]: 100 to 1000 nM
IC50 [2, 12]: > 5000 nM

CC[C@@]1(c2cccc(-c3ccnc(C)c3)c2)C2=C(C[C@@]3(CCCOC3)NC2=O)Nc2n[nH]cc21 [Compound 948146]
IC50 [1, 11]: 1000 to 5000 nM
IC50 [2, 12]: > 5000 nM

CCC1(c2cccc(-c3ccncc3C)c2)C2=C(CC(C)(COC)NC2=O)Nc2n[nH]cc21 (stereo not drawn) [Compound 948147]
IC50 [1, 11]: ≤ 100 nM
IC50 [2, 12]: ≤ 100 nM
